Values joined by “and” are separate entries in the source; they are usually repeats but may differ in a detail not shown here. Equal entries are not always repeated. Where two headings read alike, the source gives them in different places.
Tests used:
BALB/3T3 = experiment: In vitro antiproliferative activity, SRB assay, normal fibroblasts BALB/3T3; assay type: cell-based; conditions: 72 h, mean ± SD
From the text: (§1) The A549 and MCF7 cell lines were purchased from the European Collection of Authenticated Cell Cultures (ECACC, Salisbury, U.K., 86012804 and 86012803). The LoVo cell line was purchased from the American Type Culture Collection (CCL-229, ATCC, Manassas, VA), and LoVo/DX by courtesy of Prof. E. Borowski (Technical University of Gdańsk, Gdańsk, Poland). The BALB/3T3 cell line was purchased from the American Type Culture Collection (CCL-163, ATCC, Manassas, VA). All of the cell lines are maintained in the Institute of Immunology and Experimental Therapy (IIET), Wroclaw, Poland.
(§2) A549 cells were cultured in a mixture of OptiMEM and Roswell Park Memorial Institute (RPMI) 1640 (1:1) medium (IIET, Wroclaw, Poland), supplemented with 10% fetal bovine serum HyClone (GE Healthcare) and 2 mM L-glutamine (Sigma-Aldrich, Germany). MCF7 cells were cultured in a mixture of Eagle’s medium (IIET, Wroclaw, Poland), supplemented with 10% fetal bovine serum, 2 mM L-glutamine, and insulin (Sigma-Aldrich, Germany). LoVo and LoVo/DX cells were cultured in F12K medium (Corning), supplemented with 10% fetal bovine serum HyClone (GE Healthcare) and 0.1 μg/mL doxorubicin (Accord) for LoVo/DX. BALB/3T3 fibroblasts were cultured in Dulbecco’s medium (Gibco), supplemented with 10% fetal bovine serum (GE Healthcare) and 2 mM L-glutamine (Sigma-Aldrich, Germany). All culture media contained antibiotics: 100 U/mL penicillin (Polfa-Tarchomin, Poland) and 0.1 mg/mL streptomycin (Sigma-Aldrich, Germany). All cell lines were cultured during entire experiment in humid atmosphere at 37 °C and 5% CO2.
(§3) All cell lines were exposed to each tested agent at different concentrations in the range 100–0.00001 μg/mL for 72 h. The cells were also exposed to the reference drug cisplatin (Teva Pharmaceuticals, Poland) and doxorubicin (Accord Healthcare Limited, U.K.). Additionally, all cell lines were exposed to dimethyl sulfoxide (DMSO) (solvent used for tested compounds) (POCh, Poland) at concentrations corresponding to those present in tested agents dilutions. After 72 h, sulforhodamine B (SRB) assay was performed.[57]
(§4) After 72 h of incubation with the tested compounds, the cells were fixed in situ by gently adding cold 50% trichloroacetic acid (TCA) (POCh, Poland) and were incubated at room temperature for 1 h. Then, the wells were washed four times with water and air-dried. Next, 0.1% solution of sulforhodamine B (Sigma-Aldrich, Germany) in 1% acetic acid (POCh, Poland) was added to each well and the plates were incubated at room temperature for 0.5 h. After incubation time, unbound dye was removed by washing plates four times with 1% acetic acid, whereas stain bound to cells was solubilized with 10 mM Tris base (Sigma-Aldrich, Germany). Absorbance of each solution was read at Synergy H4 Hybrid Multi-Mode Microplate Reader (BioTek Instruments) at the 540 nm wavelength.
(§5) IC50 values were calculated in Excel sheet using formulas adapted by Mateusz Psurski fromCheburator 0.4, Dmitry Nevozhay software (version 1.2.0 software by Dmitry Nevozhay, 2004–2014, http://www.cheburator.nevozhay.com, freely available) for each experiment.[58] Compounds at each concentration were tested in triplicate in a single experiment, and each experiment was repeated at least three times independently.

LoVo/DX = experiment: cells; assay type: cell-based, human; conditions: for LoVo/DX RI: resistance index = IC50 LoVo/DX / IC50 LoVo; for LoVo/DX SI: selectivity index = IC50 BALB/3T3 / IC50 LoVo/DX
From the text: as §1, §2, §3, §4, §5

LoVo = experiment: cells; assay type: cell-based, human; conditions: for LoVo SI: selectivity index = IC50 BALB/3T3 / IC50 LoVo
From the text: as §1, §2, §3, §4, §5

MCF-7 = experiment: cells; assay type: cell-based, human; conditions: for MCF-7 SI: selectivity index = IC50 BALB/3T3 / IC50 MCF-7
From the text: as §1, §2, §3, §4, §5

A549 = experiment: cells; assay type: cell-based, human; conditions: for A549 SI: selectivity index = IC50 BALB/3T3 / IC50 A549
From the text: as §1, §2, §3, §4, §5

[1] = Mus musculus, BALB/3T3, normal murine embryonic fibroblasts
[2] = Homo sapiens, LoVo/DX, 72 h, read-out: LoVo/DX IC50 (nM), 72 h exposure, SRB, mean ± SD
[3] = Homo sapiens, LoVo, 72 h, read-out: LoVo IC50 (nM)
[4] = Homo sapiens, MCF7, 72 h, read-out: MCF-7 IC50 (nM)
[5] = Homo sapiens, A549, 72 h, read-out: A549 IC50 (nM), 72 h exposure, SRB, mean ± SD

| SMILES | IC50 (BALB/3T3; [1]) | IC50 (LoVo/DX; [2]) | LoVo/DX RI (LoVo/DX) | LoVo/DX SI (LoVo/DX) | IC50 (LoVo; [3]) | LoVo SI (LoVo) | IC50 (MCF-7; [4]) | MCF-7 SI (MCF-7) | IC50 (A549; [5]) | A549 SI (A549) | IC50 (A549; read-out: A549 IC50, 72 h exposure, SRB, mean ± SD) | IC50 (LoVo/DX; Homo sapiens, LoVo/DX, 72 h exposure, SRB, mean ± SD, read-out: LoVo/DX IC50) | IC50 (LoVo; Homo sapiens, LoVo, 72 h exposure, SRB, mean ± SD, read-out: LoVo IC50) | IC50 (MCF-7; Homo sapiens, MCF7, 72 h exposure, SRB, mean ± SD, read-out: MCF-7 IC50) | IC50 (A549; Homo sapiens, A549, 72 h exposure, SRB, mean ± SD, read-out: A549 IC50) | IC50 (BALB/3T3; normal murine embryonic fibroblasts) | IC50 (LoVo/DX; 72 h exposure, SRB, mean ± SD, read-out: LoVo/DX IC50) | IC50 (LoVo; 72 h exposure, SRB, mean ± SD, read-out: LoVo IC50) | IC50 (MCF-7; 72 h exposure, SRB, mean ± SD, read-out: MCF-7 IC50) | IC50 (A549; 72 h exposure, SRB, mean ± SD, read-out: A549 IC50) |
| --- | --- | --- | --- | --- | --- | --- | --- | --- | --- | --- | --- | --- | --- | --- | --- | --- | --- | --- | --- | --- |
| CNc1ccc2c(cc1=O)[C@@H](n1cc(C(=O)O)nn1)CCc1cc(OC)c(OC)c(OC)c1-2 [Compound 20] | 2100 ± 750 nM | 3400 ± 890 nM | 2.8 | 0.6 | 1200 ± 350 nM | 1.8 | 1200 ± 390 nM | 1.8 | 1300 ± 330 nM | 1.6 |  |  |  |  |  |  |  |  |  |  |
| CNc1ccc2c(cc1=O)[C@@H](n1cc(COC(=O)CCNC(=O)OC(C)(C)C)nn1)CCc1cc(OC)c(OC)c(OC)c1-2 [Compound 26] | 6.4 ± 1.4 nM | 700 ± 120 nM | 240 | <0.1 | 2.9 ± 1.2 nM | 2.2 | 1.1 ± 0.1 nM | 5.8 | 2.4 ± 0.7 nM | 2.7 |  |  |  |  |  |  |  |  |  |  |
| CNc1ccc2c(cc1=O)[C@@H](n1cc(CCl)nn1)CCc1cc(OC)c(OC)c(OC)c1-2 [Compound 10] | 13 ± 3 nM | 95 ± 24 nM | 7.9 | 0.1 | 12 ± 2.4 nM | 1.1 | 8.6 ± 3.2 nM | 1.5 | 13 ± 3.3 nM | 1.0 |  |  |  |  |  |  |  |  |  |  |
| CNc1ccc2c(cc1=O)[C@@H](n1cc(CNC(=O)OCC(Cl)(Cl)Cl)nn1)CCc1cc(OC)c(OC)c(OC)c1-2 [Compound 42] | 2.7 ± 2.4 nM | 470 ± 300 nM | 120 | <0.1 | 3.8 ± 4.2 nM | 0.7 | 2.5 ± 1.8 nM | 1.1 | 1.2 to 1.9 nM | 1.4 | 1.9 ± 2.9 nM |  |  |  |  |  |  |  |  |  |
| CNc1ccc2c(cc1=O)[C@@H](n1cc(CNC(=O)c3ccncc3)nn1)CCc1cc(OC)c(OC)c(OC)c1-2 [Compound 36] | 74 ± 22 nM | 9100 ± 790 nM | 700 | <0.1 | 13 ± 3.4 nM | 5.7 | 12 ± 1.4 nM | 6.3 and 6.2 | 22 ± 7.4 nM | 3.4 |  |  |  |  |  |  |  |  |  |  |
| CNc1ccc2c(cc1=O)[C@@H](n1cc(CNC(=O)CCC(F)(F)F)nn1)CCc1cc(OC)c(OC)c(OC)c1-2 [Compound 33] | 27 ± 8.7 nM | 3000 ± 800 nM | 270 | <0.1 | 11 ± 5.5 nM | 2.5 | 9.7 ± 3.4 nM | 2.8 | 11 ± 0.1 nM | 2.5 |  |  |  |  |  |  |  |  |  |  |
| COc1cccc2c1C(=O)c1c(O)c3c(c(O)c1C2=O)C[C@@](O)(C(=O)CO)C[C@@H]3O[C@H]1C[C@H](N)[C@H](O)[C@H](C)O1 [doxorubicin, reference compound] | 12 ± 2.3 nM |  | 110 | <0.1 |  | 0.2 |  | 0.1 |  | 0.1 |  | 5800 ± 2200 nM | 52 ± 13 nM | 82 ± 31 nM | 120 ± 100 nM |  |  |  |  |  |
| N.N.[Cl][Pt][Cl] [cisplatin, reference compound] |  |  | 0.7 | 1.1 |  | 0.8 |  | 0.8 |  | 0.9 |  |  |  |  |  | 3300 ± 970 nM | 3000 ± 800 nM | 4100 ± 860 nM | 4400 ± 1200 nM | 3500 ± 630 nM |
| CNc1ccc2c(cc1=O)[C@@H](n1cc(CO)nn1)CCc1cc(OC)c(OC)c(OC)c1-2 [Compound 9] | 14 ± 2.1 nM | 1500 ± 210 nM | 140 | <0.1 | 11 ± 5.6 nM | 1.3 | 6.8 ± 1 nM | 2.1 | 12 ± 2.1 nM | 1.2 |  |  |  |  |  |  |  |  |  |  |
| CNc1ccc2c(cc1=O)[C@@H](n1cc(CNC(=O)C(C)C)nn1)CCc1cc(OC)c(OC)c(OC)c1-2 [Compound 29] | 48 ± 14 nM | 2700 ± 600 nM | 190 | <0.1 | 14 ± 2.3 nM | 3.4 | 12 ± 3.2 nM | 4.0 | 12 ± 2.4 nM | 4.0 |  |  |  |  |  |  |  |  |  |  |
| CNc1ccc2c(cc1=O)[C@@H](n1cc(C3(O)CCCCC3)nn1)CCc1cc(OC)c(OC)c(OC)c1-2 [Compound 13] | 100 ± 33 nM | 1700 ± 160 nM | 26 | 0.1 | 65 ± 33 nM | 1.5 | 88 ± 50 nM | 1.1 | 94 ± 30 nM | 1.1 |  |  |  |  |  |  |  |  |  |  |
| CNc1ccc2c(cc1=O)[C@@H](N)CCc1cc(OC)c(OC)c(OC)c1-2 [Compound 3, N-deacetyl-10-methylamino-10-demethoxycolchicine] | 16 ± 2.1 nM | 55 ± 13 nM | 6.2 | 0.3 | 8.9 ± 1.4 nM | 1.8 | 8.1 ± 1.3 nM | 2.0 | 12 ± 2.3 nM | 1.3 |  |  |  |  |  |  |  |  |  |  |
| CNc1ccc2c(cc1=O)[C@@H](n1cc(-c3ccccn3)nn1)CCc1cc(OC)c(OC)c(OC)c1-2 [Compound 16] | 41 ± 4 nM | 210 ± 65 nM | 7.8 | 0.2 | 27 ± 14 nM | 1.5 | 28 ± 12 nM | 1.5 | 35 ± 10 nM | 1.2 |  |  |  |  |  |  |  |  |  |  |
| CNc1ccc2c(cc1=O)[C@@H](NC(C)=O)CCc1cc(OC)c(OC)c(OC)c1-2 [Compound 2, 10-N-methylaminocolchicine] | 6 ± 2.3 nM | 230 ± 17 nM | 43 | <0.1 | 5.4 ± 0.7 nM | 1.1 | 3.5 ± 0.7 nM | 1.7 | 4.4 ± 0.6 nM | 1.4 |  |  |  |  |  |  |  |  |  |  |
| CNc1ccc2c(cc1=O)[C@@H](n1cc(COC(=O)CCC(F)(F)F)nn1)CCc1cc(OC)c(OC)c(OC)c1-2 [Compound 25] | 6.7 ± 2.4 nM | 350 ± 56 nM | 160 | <0.1 | 2.2 ± 1.2 nM | 3.0 | 1.1 ± 0.4 nM | 6.1 | 1.3 ± 0.2 nM | 5.2 |  |  |  |  |  |  |  |  |  |  |
| CCOC(=O)NCc1cn([C@H]2CCc3cc(OC)c(OC)c(OC)c3-c3ccc(NC)c(=O)cc32)nn1 [Compound 38] | 12 ± 1.6 nM | 840 ± 95 nM | 110 | <0.1 | 7.7 ± 2.9 nM | 1.6 | 4.2 ± 0.7 nM | 2.9 | 4.8 ± 0.7 nM | 2.5 |  |  |  |  |  |  |  |  |  |  |

— paper PMC8515607 (ACS Omega, 2021)
